BindingDB's records for doi:10.1021/jm031121n (Novo Nordisk, 2004)

target: Glycogen phosphorylase, muscle form (Oryctolagus cuniculus) (UniProt P00489); test: Inhibition of Rabbit muscle glycogen phosphorylase B.
Sequence (P00489 whole entry, looked up): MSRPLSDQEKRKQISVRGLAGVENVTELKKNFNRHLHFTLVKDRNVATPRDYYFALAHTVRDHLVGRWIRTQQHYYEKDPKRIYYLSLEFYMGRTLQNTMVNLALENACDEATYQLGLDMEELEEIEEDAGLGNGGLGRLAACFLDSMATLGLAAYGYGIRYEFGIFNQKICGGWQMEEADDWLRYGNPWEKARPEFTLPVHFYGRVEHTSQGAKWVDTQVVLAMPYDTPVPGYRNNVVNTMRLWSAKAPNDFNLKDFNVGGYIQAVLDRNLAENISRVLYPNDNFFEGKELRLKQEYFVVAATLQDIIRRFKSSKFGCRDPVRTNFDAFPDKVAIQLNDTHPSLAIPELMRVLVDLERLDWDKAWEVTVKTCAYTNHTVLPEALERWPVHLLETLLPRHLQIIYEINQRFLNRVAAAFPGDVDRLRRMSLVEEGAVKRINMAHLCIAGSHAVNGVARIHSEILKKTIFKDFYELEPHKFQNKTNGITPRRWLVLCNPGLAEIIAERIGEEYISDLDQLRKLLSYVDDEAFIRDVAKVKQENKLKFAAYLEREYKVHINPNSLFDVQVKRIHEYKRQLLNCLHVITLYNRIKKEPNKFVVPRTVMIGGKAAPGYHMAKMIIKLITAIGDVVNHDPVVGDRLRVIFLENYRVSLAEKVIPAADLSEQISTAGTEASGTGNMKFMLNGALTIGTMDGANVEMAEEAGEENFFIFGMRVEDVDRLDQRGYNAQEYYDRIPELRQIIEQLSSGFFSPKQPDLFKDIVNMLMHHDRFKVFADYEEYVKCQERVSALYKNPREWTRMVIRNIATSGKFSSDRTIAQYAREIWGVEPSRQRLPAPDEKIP

IC50 | Structure (SMILES)
50000 nM | CC(=O)c1cccc(C(=O)Nc2ccccc2Oc2ccc(C(=O)O)c(C(=O)O)c2)c1 [4-[2-(3-Acetyl-benzoylamino)-phenoxy]-phthalic acid]
> 200000 nM | O=C(O)c1cccc(C(=O)Nc2ccccc2Oc2ccc(C(=O)O)c(C(=O)O)c2)c1 [4-[2-(3-Carboxy-benzoylamino)-phenoxy]-phthalic acid]
50000 nM | COc1cccc(C(=O)Nc2ccccc2Oc2ccc(C(=O)O)c(C(=O)O)c2)c1 [4-[2-(3-Methoxy-benzoylamino)-phenoxy]-phthalic acid]

target: Glycogen phosphorylase, liver form (Sus scrofa); test: In vitro inhibition of pig liver Glycogen phosphorylase A.

Structure (SMILES) | IC50
O=C(Nc1ccccc1Oc1ccc(C(=O)O)c(C(=O)O)c1)c1ccccc1 [4-(2-Benzoylamino-phenoxy)-phthalic acid] | > 200000 nM
O=C(Nc1ccccc1Oc1ccc(C(=O)O)c(C(=O)O)c1)c1ccc(Cl)c(Cl)c1 [4-[2-(3,4-Dichloro-benzoylamino)-phenoxy]-phthalic acid] | > 50000 nM
O=C(O)c1cccc(C(=O)Nc2ccccc2Oc2ccc(C(=O)O)c(C(=O)O)c2)c1 [4-[2-(3-Carboxy-benzoylamino)-phenoxy]-phthalic acid] | > 100000 nM
O=C(Nc1cc(C(F)(F)F)ccc1Oc1ccc(C(=O)O)c(C(=O)O)c1)c1cccc([N+](=O)[O-])c1 [4-[2-(3-Nitro-benzoylamino)-4-trifluoromethyl-phenoxy]-phthalic acid] | 1800 nM
Cc1cc(Oc2ccc(C(=O)O)c(C(=O)O)c2)c(NC(=O)c2cccc([N+](=O)[O-])c2)cc1NC(=O)c1cccc([N+](=O)[O-])c1 [4-[5-Methyl-2,4-bis-(3-nitro-benzoylamino)-phenoxy]-phthalic acid] | 700 nM

Further lines, results first:

IC50 | Structure (SMILES)
> 200000 nM | O=C(Nc1ccccc1Oc1ccc(C(=O)O)c(C(=O)O)c1)c1ccc(Cl)cc1 [4-[2-(4-Chloro-benzoylamino)-phenoxy]-phthalic acid]
> 30000 nM | Cc1ccc(C(=O)Nc2ccccc2Oc2ccc(C(=O)O)c(C(=O)O)c2)cc1 [4-[2-(4-Methyl-benzoylamino)-phenoxy]-phthalic acid]
140 nM | CC(=O)Nc1ccc(Oc2ccc(C(=O)O)c(C(=O)O)c2)c(NC(=O)c2cccc([N+](=O)[O-])c2)c1 [4-[4-Acetylamino-2-(3-nitro-benzoylamino)-phenoxy]-phthalic acid]
120 nM | O=C(Nc1ccc(Oc2ccc(C(=O)O)c(C(=O)O)c2)c(NC(=O)c2cccc([N+](=O)[O-])c2)c1)c1ccccc1 [4-[4-Benzoylamino-2-(3-nitro-benzoylamino)-phenoxy]-phthalic acid]
250 nM | O=C(Nc1cc(Br)ccc1Oc1ccc(C(=O)O)c(C(=O)O)c1)c1cccc([N+](=O)[O-])c1 [4-[4-Bromo-2-(3-nitro-benzoylamino)-phenoxy]-phthalic acid]
2200 nM | N#Cc1ccc(Oc2ccc(C(=O)O)c(C(=O)O)c2)c(NC(=O)c2cccc([N+](=O)[O-])c2)c1 [4-[4-Cyano-2-(3-nitro-benzoylamino)-phenoxy]-phthalic acid]
2500 nM | O=C(Nc1cc(F)ccc1Oc1ccc(C(=O)O)c(C(=O)O)c1)c1cccc([N+](=O)[O-])c1 [4-[4-Fluoro-2-(3-nitro-benzoylamino)-phenoxy]-phthalic acid]
450 nM | Cc1ccc(Oc2ccc(C(=O)O)c(C(=O)O)c2)c(NC(=O)c2cccc([N+](=O)[O-])c2)c1 [4-[4-Methyl-2-(3-nitro-benzoylamino)-phenoxy]-phthalic acid]

target: Glycogen phosphorylase, muscle form (Oryctolagus cuniculus) (UniProt P00489); test: Inhibitory activity against rabbit Muscle glycogen phosphorylase b

Ki | Structure (SMILES)
3000 nM | O=C1NC(=O)[C@]2(C[C@H](CO)[C@@H](O)[C@H](O)[C@H]2O)N1 [(6S,7S,8R,9R)-6,7,8-Trihydroxy-9-hydroxymethyl-1,3-diaza-spiro[4.5]decane-2,4-dione]

target: not listed separately; test: Inhibitory activity against rabbit muscle glycogen phosphorylase a in the absence of AMP

Ki | Structure (SMILES)
11 nM | CCN1C(C)=C(C(=O)OC(C)C)[C@@H](c2ccccc2)C(C(=O)O)=C1C(=O)O [(S)-1-Ethyl-6-methyl-4-phenyl-1,4-dihydro-pyridine-2,3,5-tricarboxylic acid 5-isopropyl ester]
